Measured values published in ChEMBL document CHEMBL3886457, “Ethynyl derivatives” (2016).

Molecular target: Metabotropic glutamate receptor 5 (Homo sapiens, UniProt P41594)
Test: Binding Assay: For binding experiments, cDNA encoding human mGlu 5a receptor was transiently transfected into EBNA cells using a procedure described by Schlaeger and Christensen [Cytotechnology 15:1-13 (1998)]. Cell membrane homogenates were stored at -80° C. until the day of assay where upon they were thawed and resuspended and polytronised in 15 mM Tris-HCl, 120 mM NaCl, 100 mM KCl, 25 mM CaCl2, 25 mM MgCl2 binding buffer at pH 7.4 to a final assay concentration of 20 ug protein/well.Saturation isotherms were determined by addition of twelve [3H]MPEP concentrations (0.04-100 nM) to these membranes (in a total volume of 200 ul) for 1 h at 4° C. Competition experiments were performed with a fixed concentration of [3H]MPEP (2 nM) and IC50 values of test compounds evaluated using 11 concentrations (0.3-10,000 nM). Incubations were performed for 1 h at 4° C.At the end of the incubation, membranes were filtered onto unifilter (96-well white microplate with bonded GF/C filter preincubated 1 h in 0.1% PEI in wash buffer, Packard BioScience, Meriden, Conn.) with a Filtermate 96 harvester (Packard BioScience) and washed 3 times with cold 50 mM Tris-HCl, pH 7.4 buffer. Nonspecific binding was measured in the presence of 10 uM MPEP. […]

Metabotropic glutamate receptor 5, sequence (P41594 whole entry): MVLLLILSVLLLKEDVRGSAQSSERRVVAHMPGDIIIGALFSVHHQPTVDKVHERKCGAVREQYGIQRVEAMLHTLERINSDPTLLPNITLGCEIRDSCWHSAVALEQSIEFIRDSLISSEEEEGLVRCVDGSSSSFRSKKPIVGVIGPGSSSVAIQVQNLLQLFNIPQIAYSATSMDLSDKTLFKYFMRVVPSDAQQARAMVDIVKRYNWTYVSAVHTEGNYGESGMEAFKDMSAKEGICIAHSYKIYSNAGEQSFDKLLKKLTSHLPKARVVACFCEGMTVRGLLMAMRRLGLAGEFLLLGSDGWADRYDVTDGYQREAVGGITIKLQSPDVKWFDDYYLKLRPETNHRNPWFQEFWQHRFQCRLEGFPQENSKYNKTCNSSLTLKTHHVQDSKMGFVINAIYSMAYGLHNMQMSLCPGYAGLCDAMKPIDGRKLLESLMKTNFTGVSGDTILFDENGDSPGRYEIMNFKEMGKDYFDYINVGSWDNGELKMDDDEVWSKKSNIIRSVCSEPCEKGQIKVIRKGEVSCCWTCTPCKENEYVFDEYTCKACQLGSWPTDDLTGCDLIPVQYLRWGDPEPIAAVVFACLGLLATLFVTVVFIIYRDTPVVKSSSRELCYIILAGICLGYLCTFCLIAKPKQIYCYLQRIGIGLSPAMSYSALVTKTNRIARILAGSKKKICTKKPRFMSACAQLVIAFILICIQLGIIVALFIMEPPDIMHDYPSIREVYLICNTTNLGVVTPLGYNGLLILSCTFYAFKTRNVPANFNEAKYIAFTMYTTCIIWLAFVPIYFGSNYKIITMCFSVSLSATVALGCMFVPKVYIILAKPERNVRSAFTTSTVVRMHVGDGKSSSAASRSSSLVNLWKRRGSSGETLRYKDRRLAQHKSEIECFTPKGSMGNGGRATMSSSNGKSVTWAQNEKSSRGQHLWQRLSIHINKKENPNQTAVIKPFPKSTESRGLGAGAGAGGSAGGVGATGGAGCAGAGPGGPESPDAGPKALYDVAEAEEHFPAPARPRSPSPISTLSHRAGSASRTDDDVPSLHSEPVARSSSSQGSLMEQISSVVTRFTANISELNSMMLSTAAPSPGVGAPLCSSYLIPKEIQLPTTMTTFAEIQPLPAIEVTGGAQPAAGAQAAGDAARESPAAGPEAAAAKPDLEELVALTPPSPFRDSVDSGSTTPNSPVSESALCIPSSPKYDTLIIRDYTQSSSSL

For `O=C(c1ccc(C#Cc2cccc(Cl)c2)cn1)N1CCOCC1`, the Ki was 19 nM.
